Data reported in a melting point compilation (Tetko et al.; mined from patent text by program, amines drawn as free bases though some values may be those of a salt).

First: CC(C)(C)C(=O)c1c[nH]c2ncc(-c3cccc(C#N)c3)nc12
Second: CCNc1cccc(-c2ccnc3c(C(=O)c4ccccc4)cnn23)c1
The melting point of the first is higher: 248 to 249 °C for the first, 98 to 99 °C for the second.

Compared with `Nc1ncnc2cc(-c3ccc(C(F)(F)F)cc3)sc12`, `CSc1nn(Cc2cccc(C(F)(F)F)c2)c(N)c1C#N` is lower in melting point: 181 to 194 °C for the first, 142 °C for the second.

First: O=S1(=O)NCN(C2CC2)c2ccc(Br)cc21
Second: CS(=O)(=O)c1ccc(C(CC2CCCC2)C(=O)Nc2ccccn2)cc1Br (stereo unspecified)
The melting point of the first is higher: 178 to 179 °C for the first, 99 to 101 °C for the second.

First: CC(C)N(C(=O)c1ccc(F)cc1)C1CCN(Cc2ccccc2)CC1
Second: CC(C)(C)OC(=O)NC1CCN(Cc2ccccc2)CC1
The melting point of the first is lower: 98 °C for the first, 112 to 120 °C for the second.

First: CCCCCCCCCCCCCCCCCCS(=O)c1cc2ccccc2c(N)c1O (stereo unspecified)
Second: CCCCCCCCCCCCc1cn(C(C(=O)O)c2ccccc2)cn1 (stereo unspecified)
The melting point of the first is lower: 95 to 97 °C for the first, 110 to 118 °C for the second.

First: O=C(O)c1cn(C2CC2)c2nc(N3CCC(c4cccnc4)C3)c(F)cc2c1=O (stereo unspecified)
Second: CSC1=NC2C=C(C(=O)NCC3CC3)C(NC(=O)c3cc(C(F)(F)F)nn3-c3ncccc3Cl)=C(Cl)C2S1 (stereo unspecified)
The melting point of the first is higher: 226 to 228 °C for the first, 221 to 223 °C for the second.

First: C=CCOc1ccc(C)c2c1C(C)(C)C(=O)N2Cc1ccccc1
Second: O=C1C(CCO)Oc2ccc(Cl)cc2N1Cc1cccc(Cl)c1 (stereo unspecified)
The melting point of the first is higher: 107 to 108 °C for the first, 90 to 92 °C for the second.

First: CCCCCCCN(CCCCCCCCSc1nc(-c2ccccc2)c(-c2ccccc2)[nH]1)C(=O)Nc1ccc(F)cc1F
Second: Cc1oc(-c2ccccc2)nc1CCOc1ccc(C[C@@H](C(=O)O)n2ccc(-c3ccccc3)c2)cc1
The melting point of the first is lower: 89 to 91 °C for the first, 146 to 147 °C for the second.

Compared with `CC(=O)N1C(=O)Cc2cc(F)c(N3C(=O)C4=C(CCCC4)C3=O)cc21`, `Cc1c(F)c(F)c(C(=O)NC2CCCCC2C)c(F)c1F` (stereo unspecified) is higher in melting point: 191 to 194 °C for the first, 202 to 204 °C for the second.

First: CN(C)S(=O)(=O)n1c(N)nc2ccc(C(N)=O)cc21
Second: CCOC(=O)COc1cccc2cc(S(N)(=O)=O)sc12
The melting point of the first is higher: 206 to 208 °C for the first, 168 °C for the second.

First: CNC1=Nc2ccc(Cl)cc2C(c2ccccc2F)=NC1
Second: CC(=O)c1ccc2c(c1)C(c1ccccc1F)=NC(C)C(=O)N2 (stereo unspecified)
The melting point of the first is higher: 204 to 206 °C for the first, 203 °C for the second.

First: CCc1nn2ccccc2c1NC(C)=O
Second: CCc1c(CC)n(Cc2ccccc2Cl)c2cc(C(=O)OC)ccc12
The melting point of the first is higher: 184 to 188 °C for the first, 86 to 88 °C for the second.

Compared with `Cc1ccc(S(=O)(=O)NCC2(N3CCN(C)CC3)CCCCC2)cc1`, `Cc1ccc(S(=O)(=O)N2[C@@H](CCn3cccn3)CC[C@H]2c2ccc(F)cc2)cc1` (racemic) is lower in melting point: 128 to 130 °C for the first, 121 °C for the second.

Going from `O=C(O)C(=O)Nc1cccc([N+](=O)[O-])c1` to `O=C(c1ccccc1)c1cc([N+](=O)[O-])ccc1NC1CCCC1`, the melting point falls from greater than 270 °C to 95 °C.

First: CCOC(=O)c1cnn2c1c(Cl)nc1c(C)nn(C)c12
Second: CCOC(=O)C1=CN(c2ccc(Cl)c(Cl)c2Cl)N(N)C1
The melting point of the first is lower: 130 to 132 °C for the first, 158 to 159 °C for the second.

Compared with `COC(=O)Cc1ccc(Oc2ccc(C#N)cc2)cc1`, `CS(=O)(=O)c1ccc(Oc2ccc(C#N)cc2)cc1` is higher in melting point: 58 to 60 °C for the first, 127 to 128 °C for the second.

First: Nc1sc(CC(O)CO)cc1C(=O)c1ccccc1Cl (stereo unspecified)
Second: O=C(O)c1ccccc1C(=O)c1ccc(Cl)c(S(=O)(=O)Cl)c1
The melting point of the first is lower: 136 to 137 °C for the first, 176 to 177 °C for the second.

First: CCN1CCN(c2cccc3ccc(-c4cccc(NS(C)(=O)=O)c4)cc23)CC1
Second: OC(COc1ccccc1-c1cc[nH]n1)CN1CCN(c2ccc(Cl)cc2)CC1 (stereo unspecified)
The melting point of the first is lower: 100 to 101 °C for the first, 120 to 121 °C for the second.

First: OC(CNC1CCc2ccccc2C1)COc1cccc2c1CCCC2 (stereo unspecified)
Second: N#Cc1ccc(C(=C2CCCC2)c2ncc[nH]2)cc1
The melting point of the first is lower: 90 to 93 °C for the first, 108 to 110 °C for the second.

First: O=C1NC(c2ccccc2)Oc2ccccc21 (stereo unspecified)
Second: O=C(Nc1ccccc1SCc1ncon1)OCc1ccccc1
The melting point of the first is higher: 157 to 160 °C for the first, 41 °C for the second.

Going from `O=S(=O)(Cc1ccc(Br)cc1)c1nc(-c2ccncc2)ns1` to `COc1ccc(CNc2nc(-c3ccc(C(=O)O)cc3)nc3scc(C)c23)cc1Cl`, the melting point rises from 173 °C to 245 °C.

Compared with `OC1(COc2cccc3onc(OCC4CCN(CC5(O)CCOCC5)CC4)c23)CCCC1`, `Clc1cccc(Nc2nc(OCC3CCCCC3)c3[nH]cnc3n2)c1` is higher in melting point: 136 °C for the first, 196 to 199 °C for the second.

Compared with `NC(=S)NN=C(CNC(=O)C1CCCCC1)c1ccccc1`, `Cc1cccc(NC(=O)NCC(=O)N(c2ccccc2)C(C(=O)OC(C)(C)C)c2ccccc2Cl)c1` (racemic) is higher in melting point: 104 to 110 °C for the first, 181 °C for the second.

First: Cc1[nH]c(=O)c2c(ccc3nc(Nc4c(Cl)cccc4Cl)n(C)c32)c1CCN1CCOCC1
Second: CN1CCN(c2ccc(-c3[nH]nc4c3C(=O)c3c(NC(=O)NN5CCOCC5)cccc3-4)cc2)CC1
The melting point of the first is higher: 285 to 290 °C for the first, 245 °C for the second.

First: COc1cc2cnn(CCCCl)c(=O)c2cc1OC
Second: COc1cc2ncnc(Nc3cccc4ccccc34)c2cc1OC
The melting point of the first is lower: 185 to 187 °C for the first, 271 to 273 °C for the second.

First: OC(CCl)c1ccc(-c2ccc(SC(F)F)cc2)cc1 (stereo unspecified)
Second: COc1ccc(-c2ccc(CC3CC=CC3)cc2)cc1
The melting point of the first is lower: 66 to 68 °C for the first, 75 to 77 °C for the second.

First: O=C(c1ccccc1)c1cc2ccnc(Cl)c2[nH]1
Second: Cc1c(Cl)cccc1-n1nc(C(N)=O)nc1-c1ccccc1
The melting point of the first is lower: 152 to 153 °C for the first, 198 to 200 °C for the second.

First: O=C(O)CCCCOc1ccc(OCc2ccccc2)cc1
Second: CCCOC(=O)CCC(=O)c1ccc(-c2ccccc2F)cc1
The melting point of the first is higher: 127 to 128 °C for the first, 53 to 54 °C for the second.

First: CC(=O)N1CC(Oc2c(C)cccc2C)C1
Second: Cc1cc(C)c2c(c1C)OCC2c1ccc(C=O)cc1 (stereo unspecified)
The melting point of the first is lower: 40 to 42.5 °C for the first, 87 to 88 °C for the second.

First: Cc1ccc(Oc2ccc(-n3cc(C(=O)O)nn3)cc2)c(O)c1
Second: CC1C(=O)N(c2ccccc2)C(=S)N1c1ccc(Oc2ccccc2Cl)cc1 (stereo unspecified)
The melting point of the first is higher: 159 to 161 °C for the first, 108 °C for the second.

Compared with `COc1cc(OC)c2c(=O)[nH]c(-c3cc(C)c(OCCO)c(C)c3)cc2n1`, `COc1cc(O)c2c(=O)c(OC)c(-c3ccc(O)c(OC)c3)oc2c1` is lower in melting point: 225 °C for the first, 171 to 173 °C for the second.

Compared with `COC1=C(C(=O)c2ccc(C)cc2)C(c2ccc(C(C)C)cc2)N(c2ncc(S(=O)(=O)c3ccc([N+](=O)[O-])cc3)s2)C1=O` (stereo unspecified), `CCOC(C)c1ccc(OCCOc2ncnc(NS(=O)(=O)c3ccc(C(C)(C)C)cc3)c2-c2ccc(C)cc2)cc1` (stereo unspecified) is lower in melting point: 237 °C for the first, 139 to 140 °C for the second.

First: CC12CC(O)C3(F)C(CCC4=CC(=O)C=CC43C)C1CCC2S (stereo unspecified)
Second: CC(=O)OC1CCC2(C)C(=CCC3C4CCC(=O)C4(C)CC(OC(C)=O)C32)C1 (stereo unspecified)
The melting point of the first is higher: 295 to 297 °C for the first, 177 to 179 °C for the second.

First: Cn1nc(N)nc1NCCCOc1cccc(CNCC(F)(F)F)c1
Second: CCCCNC(=O)N(C)c1cccc(-c2ccc(C=C(OC)C(=O)O)cc2OCCCC)c1
The melting point of the first is lower: 62 to 64 °C for the first, 106 °C for the second.

First: Cn1ncc2c1-c1c(Oc3ccc(O)cc3)sc(C(N)=O)c1CC2
Second: Cc1ccccc1C1(c2ccc(OC(F)F)cc2)N=C(N)N(C)C1=O (stereo unspecified)
The melting point of the first is higher: 137 to 139 °C for the first, 85 to 90 °C for the second.

First: CC1CCC(=O)N1CC(=O)NCCN(C(C)C)C(C)C (stereo unspecified)
Second: COC(=O)C(CSCc1ccc(OC)cc1)NC(=O)NCCCCC1CCSS1 (stereo unspecified)
The melting point of the first is lower: 73 to 74 °C for the first, 105 to 107 °C for the second.

`CCOC(=O)c1ccc(-c2ccc3c(c2)OCO3)cc1` and `CCOC(=O)CCCCc1oc(-n2ccnc2C)nc1-c1ccc(Cl)cc1` cannot be ordered by melting point: 92.5 to 93.5 °C for the first, 93 to 94 °C for the second.

First: CCOC(=O)C(Cc1c(OCC)noc1-c1ncn(C(c2ccccc2)(c2ccccc2)c2ccccc2)n1)(NC(C)=O)C(=O)OCC
Second: CCN(CC)C(=O)CCc1nc(-c2cccc(OC)c2)nc2ccccc12
The melting point of the first is higher: 145 to 149 °C for the first, 87 °C for the second.

Compared with `CC(C(=O)O)c1cc(F)c([N+](=O)[O-])cc1[N+](=O)[O-]` (stereo unspecified), `COc1cc(C(=O)c2ncc3ccc(NC(C)=O)cn23)ccc1[N+](=O)[O-]` is higher in melting point: 141 to 142 °C for the first, 257 °C for the second.

First: CN(C=O)CCC12CCCn3c1c(c1ccccc13)CCO2 (stereo unspecified)
Second: S=C(Cc1ccc2c(c1)CCO2)N1CCOCC1
The melting point of the first is lower: 111 to 113 °C for the first, 141 to 143 °C for the second.

First: CCc1ccc(Nc2c(-c3nnc(CC)o3)ccc(F)c2F)c(F)c1
Second: O=C(Nc1c(C(O)(C(F)(F)F)C(F)(F)F)ccc2ccccc12)c1ccco1
The melting point of the first is lower: 82 to 83 °C for the first, 228 to 229 °C for the second.

First: COc1ccc2c(c1)C(=NO)CCO2
Second: COc1ccc2c(c1)CC(=O)NC2=O
The melting point of the first is lower: 120 to 121 °C for the first, 212 to 215 °C for the second.

Compared with `COc1cc(OCCCN(C)Cc2ccc(OC)c(OC)c2)ccc1NC(=O)c1cccc2c(=O)c3cccc(F)c3[nH]c12`, `Cc1cc2cc(CN3CCC(CCCC(=O)N(C)C)CC3)cnc2cc1NC(=O)c1ccc(-c2ccc(F)cc2)cc1` is higher in melting point: 108 °C for the first, 194 °C for the second.

`COc1ccc2cc(C(C)C(=O)ON(C(N)=O)C(C)c3ccoc3)ccc2c1` (stereo unspecified) and `COC(=O)NC=Cc1ccc(OCC(O)CNC(C)C)cc1` (stereo unspecified) cannot be ordered by melting point: 128 to 134 °C for the first, 128 to 129 °C for the second.

Compared with `O=C1CCC(C=Cc2ccc(-n3ccnc3)cc2)=NN1`, `Cc1ccc(-c2ccc(OC3SCC(O)C(O)C3O)cn2)cn1` (stereo unspecified) is lower in melting point: 230 to 231 °C for the first, 228 °C for the second.

First: COC(=O)c1cccc2oc(CBr)nc12
Second: CCCCNC(=O)n1c(=NC(F)(F)F)oc2ccc([N+](=O)[O-])cc21
The melting point of the first is lower: 110 to 113 °C for the first, 121 to 122 °C for the second.

Compared with `O=S(=O)(CCl)c1ccc(O)c(Cl)c1`, `CC(CS(=O)(=O)c1ccc(Oc2ccc(Cl)cc2)cc1)N(O)C=O` (stereo unspecified) is higher in melting point: 108 °C for the first, 144 to 145 °C for the second.

First: CCNC(=O)c1c([Si](C)(C)C)ccc(C(C)=O)c1Cl
Second: COc1cc(CCCOc2c(CC(=O)O)cccc2OC)n(Cc2ccc(Cl)cc2Cl)n1
The melting point of the first is lower: 78 to 80 °C for the first, 111 to 112 °C for the second.

First: COc1cc(Nc2nccc(Nc3ccc(N4CCN(C)CC4)cc3)n2)cc(OC)c1OC
Second: COc1cc(C=CC(CCc2ccco2)=NO)ccc1O
The melting point of the first is lower: 104 °C for the first, 110 to 120 °C for the second.

Compared with `CC(C)(C)OC(=O)[C@@H]1CCCN1C(=O)C=CC(F)(F)F`, `CCCCCCC1C(=O)NC2(C(O)C3CCCCC3)C(=O)OC12C` (stereo unspecified) is higher in melting point: 119 to 120 °C for the first, 167 °C for the second.

With `C[C@H]1OC(=O)[C@@H]2C=C3CCCC[C@H]3[C@H](O)[C@H]12` the melting point was 156 to 157 °C.
